This note sets out measurements from patent US20200016059A1, “PERSONAL CARE COMPOSITIONS WITH GLUTATHIONE PRECURSOR COMPRISING NICOTINAMIDE AND AMINO ACIDS” (Conopco, Inc., d/ba UNILEVER, priority 2016, published 2020).

Common to all, as to assay type: cell-based
The test system of one data set is Aged Human Keratinocytes. As to the kind of experiment: Glutathione assay (total glutathione, GSH-GSSG Glo) after menadione challenge. Conditions: for % Protection (improvement vs. vehicle control + menadione): glutathione; for Mean (uM glutathione): Table 1A. The source says: The medium was refreshed every 2-3 days. Subsequently, cells were trypsinized at 90% confluency and seeded at a density of 1×10^4 per well into 96-well plates with white wall and clear bottom. […] The concentration of all amino acids constituting the GAP mixture used in this assay are designated in the data tables, and fully described in the abbreviations list below. After one or two hours of pre-treatment with GAP (and additional test reagents where described), keratinocytes were then challenged with 25 uM menadione (Sigma-Aldrich), a known inducer of oxidative stress. […] In summary, after cell treatment, the media was removed and replaced with a cell lysis reagent for 5 minutes at 20-25° C.; note, all remaining steps were also conducted at 20-25° C. Next, a luciferase generation reagent was added to each well and incubated for 30 minutes. Following this step, a luciferin detection reagent was added to each well and plates were incubated for 15 minutes. Finally, plates were then read for luminescence in a FlexStation 3 plate reader (Molecular Devices). Total glutathione levels were calculated after interpolation of glutathione concentrations from a standard curve. Experimental conditions were typically conducted in at least triplicate determinations. Statistical significance was calculated using 1-way ANOVA. Percent protection was calculated by using the calculated glutathione levels from each experiment in the following equation: […]

For data set [1], the system named is Human Keratinocytes. As to the kind of experiment: Cell viability assay (CCK-8). Conditions: for % Protection (improvement vs. vehicle control + menadione): cell viability. How it is done:
The medium was refreshed every other day. Subsequently, cells were trypsinized at 90% confluency and seeded at a density of 2×10^4 per well into 96-well transparent tissue culture plates. On the second day after seeding, cell medium was replaced with treatments as described above in ROS assay section. After 18 hours, […] (CCK-8) reagent (Dojindo, Kumamoto, Japan) was diluted 1:10 in HBSS and incubated with cells for 4 h at 37° C. in a humidified incubator. Optical absorption at 450 nm was measured using a Tecan Safire2 plate reader. […] Where indicated, percent protection was calculated as a comparison to menadione alone treatment, using the measured relative absorbance units in the following equation: […]

Data set [2] concerns Human Keratinocytes. The experiment in a line: Reactive oxygen species (ROS) assay, CellROX green. The conditions noted are these: for % Protection (improvement vs. vehicle control + menadione): ROS. The procedure: The medium was refreshed every other day. Subsequently, cells were trypsinized at 90% confluency and seeded at a density of 1-2×10^4 per well into 96-well plates with black wall and clear bottom. On the second day after seeding, cell medium was replaced with Hank's Balanced Salt Solution (HBSS) with or without menadione (10-25 uM), GAP (typically at 49 uM pyroglutamic acid, 60 uM cystine, 194 uM glycine), GAP vehicle (0.2 mM NaOH, pH 7.5), above-described additional test reagents, combinations of GAP with additional test reagents, or L-cystine esters alone and incubated for additional 18 hours. For ROS detection, CellROX green (Life Tech, Thermo Fisher Scientific, Rockford, USA) reagent was added into each well to a final concentration of 15-25 uM and incubated for additional 2-4 hours at 37° C. in a humidified incubator. The ROS fluorescence was detected using a Tecan microplate reader (Excitation/Emission=490/525). […] Where indicated, percent protection was calculated as a comparison to menadione alone treatment, using the measured relative fluorescent units in the following equation: ROS levels were evaluated together with cell viability because it is possible to get a false negative for ROS if treatment is so toxic that at the time of assay, cells are dead (and there are no longer any detectable ROS). Decrease in ROS levels is meaningful if cells are still viable.

[3] abbreviates: cystine ester at 40 uM + menadione.
Setting [4] is: cystine ester at 80 uM + menadione.
The mark [5] stands for this setting: cystine ester at 20 uM + menadione.
The mark [6] stands for this setting: cystine ester at 160 uM + menadione.
Where [7] appears, read: Table 1A glutathione, test reagent at 0.5 mM, alone or with GAP 10, + 25 uM menadione.
[8] abbreviates: Table 1A glutathione, test reagent at 5 mM, alone or with GAP 10, + 25 uM menadione.
The mark [9] stands for this setting: Table 1A glutathione, test reagent at 10 mM, alone or with GAP 10, + 25 uM menadione.
Setting [10] is: nicotinamide / nicotinamide riboside / picolinamide at 0.5 mM, alone or with GAP 10, + 25 uM menadione.
Setting [11] is: nicotinamide / picolinamide at 5 mM, alone or with GAP 10, + 25 uM menadione.
Setting [12] is: nicotinamide / picolinamide at 10 mM, alone or with GAP 10, + 25 uM menadione.
The mark [13] stands for this setting: Table 1B, vs menadione alone, nicotinamide 10 mM, GAP typically 49/60/194 uM.

Molecules are shown by their SMILES.

In the case of `CCOC(=O)[C@@H](N)CSSC[C@H](N)C(=O)OCC.Cl.Cl` [DEC, Diethyl L-cystinate dihydrochloride], the “Mean (μm glutathione)” value is recorded as 0.54^1,2 μm with Aged Human Keratinocytes (setting [3]) and 2.72^1,2 μm in the data set on Aged Human Keratinocytes (setting [4]). Also, the “% Protection (improvement vs. vehicle control + menadione)” value in the data set on Aged Human Keratinocytes (setting [3]) is recorded as 13^1,2%; in the data set with Aged Human Keratinocytes (setting [4]) it was 93^1,2%; with Human Keratinocytes [1] (setting [5]), 48.9^2%; with Human Keratinocytes [1] (setting [3]) it was 72.7^1,2%; in the data set on Human Keratinocytes [1] (setting [4]), 78.3^1,2%; in the data set on Human Keratinocytes [1] (setting [6]), 65.9^1,2%. Further, the “% Protection (improvement vs. vehicle control + menadione)” value in the data set with Human Keratinocytes [2] (setting [5]) is 38.0^1,2%; in the data set on Human Keratinocytes [2] (setting [3]), 43.6^1,2%; with Human Keratinocytes [2] (setting [4]) it was 37.7^1,2%; in the data set with Human Keratinocytes [2] (setting [6]), 32.4^1,2%. The “Cell viability (% of vehicle control)” value is 109.8^2 % of vehicle control in the data set on Human Keratinocytes [1] (setting [5]), 127.3^1,2 % of vehicle control in the data set with Human Keratinocytes [1] (setting [3]), 131.5^1,2 % of vehicle control with Human Keratinocytes [1] (setting [4]) and 122.3^1,2 % of vehicle control in the data set on Human Keratinocytes [1] (setting [6]).
In the case of `NC(=O)c1cccnc1` [Nicotinamide], the “% Protection” value is 0% with Aged Human Keratinocytes (setting [7]); 0% with Aged Human Keratinocytes (setting [8]); 1% in the data set on Aged Human Keratinocytes (setting [9]); 3^1% in the data set on Aged Human Keratinocytes (Table 2A glutathione, nicotinamide at 5 mM, alone or with amino acids, + menadione). Besides, the “Mean (uM glutathione)” value in the data set on Aged Human Keratinocytes (setting [10]) turned out to be 0.17 µM; in the data set on Aged Human Keratinocytes (setting [11]), 0.14 µM; in the data set on Aged Human Keratinocytes (setting [12]), 0.20 µM. Besides, the “Mean (Glutathione Synthesis)” value with Aged Human Keratinocytes (Table 2A, nicotinamide at 5 mM, alone or with amino acids, + menadione) was 0.13^1. Besides, in the data set with Human Keratinocytes [1] (Table 1B, + menadione, 18 h, nicotinamide 10 mM, GAP typically 49/60/194 uM), the “cell viability (% of control)” value is listed as 92.90^3 % of control. For the same molecule, the “% Protection (cell viability)” value with Human Keratinocytes [1] (setting [13]) was 15.41^3%. Besides, in the data set with Human Keratinocytes [2] (Table 1B, + menadione, 18 h, nicotinamide 10 mM, GAP typically 49 uM pyroglutamic acid, 60 uM cystine, 194 uM glycine), the “ROS production (% of control)” value is 231.00^3 % of control. In the data set with Human Keratinocytes [2] (setting [13]), the “% Protection (ROS)” value is listed as 17.70^3%.
`NC(=O)c1ccc[n+]([C@@H]2O[C@H](CO)[C@@H](O)[C@H]2O)c1` [Nicotinamide riboside, nicotinamide riboside]: in the data set with Aged Human Keratinocytes (setting [7]), the “% Protection” value was 0%. For the same molecule, in the data set with Aged Human Keratinocytes (setting [10]), the “Mean (uM glutathione)” value came out at 0.16 µM.
As to `NC(=O)c1ccccn1` [Picolinamide, picolinamide], the “% Protection” value is given as 2% in the data set with Aged Human Keratinocytes (setting [7]), 0% in the data set on Aged Human Keratinocytes (setting [8]) and 0% in the data set with Aged Human Keratinocytes (setting [9]). The results for the “Mean (uM glutathione)” value in the data set with Aged Human Keratinocytes (setting [10]), in the data set with Aged Human Keratinocytes (setting [11]) and in the data set on Aged Human Keratinocytes (setting [12]) were 0.23 µM, 0.18 µM and 0.16 µM, respectively.
On to `CC(C)(C)OC(=O)[C@@H](N)CSSC[C@H](N)C(=O)OC(C)(C)C.Cl.Cl` [DTBC, Ditert-butyl L-cystinate dihydrochloride], for which the entries for the “Mean (μm glutathione)” value in the data set on Aged Human Keratinocytes (setting [3]) and with Aged Human Keratinocytes (setting [4]) were 0.17^1 μm and 0.19^1 μm, respectively. The “% Protection (improvement vs. vehicle control + menadione)” value in the data set on Aged Human Keratinocytes (setting [3]) is on record as 0^1%; with Aged Human Keratinocytes (setting [4]) it was 1^1%; with Human Keratinocytes [1] (setting [5]), 6.0%; in the data set with Human Keratinocytes [1] (setting [3]) it was 3.0%; in the data set on Human Keratinocytes [1] (setting [4]) it was −0.1%; in the data set with Human Keratinocytes [1] (setting [6]), 41.3^2%. The “% Protection (improvement vs. vehicle control + menadione)” value is recorded as 2.2% in the data set with Human Keratinocytes [2] (setting [5]), 13.8^1,2% in the data set on Human Keratinocytes [2] (setting [3]), 28.4^1,2% in the data set with Human Keratinocytes [2] (setting [4]) and 41.1^1,2% with Human Keratinocytes [2] (setting [6]). For the same molecule, the “Cell viability (% of vehicle control)” value in the data set on Human Keratinocytes [1] (setting [5]) is on record as 78.1^1 % of vehicle control; in the data set with Human Keratinocytes [1] (setting [3]), 75.9^1 % of vehicle control; in the data set on Human Keratinocytes [1] (setting [4]), 73.6^1 % of vehicle control; in the data set with Human Keratinocytes [1] (setting [6]), 104.2^2 % of vehicle control.
As for `COC(=O)[C@@H](N)CSSC[C@H](N)C(=O)OC.Cl.Cl` [CDME, L-Cystine dimethyl ester dihydrochloride], the “Mean (μm glutathione)” value with Aged Human Keratinocytes (setting [4]) is reported as 1.09^1,2 μm. The “% Protection (improvement vs. vehicle control + menadione)” value is recorded as 31^1,2% in the data set with Aged Human Keratinocytes (setting [4]); 30.2^1,2% with Human Keratinocytes [1] (setting [5]); 33.4^1,2% in the data set with Human Keratinocytes [1] (setting [3]); 24.6^1,2% in the data set with Human Keratinocytes [1] (setting [4]); 51.7^1,2% in the data set on Human Keratinocytes [1] (setting [6]); 18.2^2% in the data set with Human Keratinocytes [2] (setting [5]). Further, the “% Protection (improvement vs. vehicle control + menadione)” value is 15.5^1,2% in the data set with Human Keratinocytes [2] (setting [3]), 13.3^1,2% with Human Keratinocytes [2] (setting [4]) and 25.7^2% in the data set with Human Keratinocytes [2] (setting [6]). The “Cell viability (% of vehicle control)” value in the data set with Human Keratinocytes [1] (setting [5]) was 90.9^1,2 % of vehicle control; with Human Keratinocytes [1] (setting [3]) it was 93.1^1,2 % of vehicle control; in the data set on Human Keratinocytes [1] (setting [4]), 87.0^1,2 % of vehicle control; in the data set on Human Keratinocytes [1] (setting [6]), 105.9^1,2 % of vehicle control.
